Legend:
collagenase = assay: Collagenase inhibition assay; assay type: biochemical; conditions: positive control
Protocol: The collagenase inhibitory activity of each sample was determined in vitro according to Widodo et al. with some modifications. In summary, 15.0 μL of enzyme, 60 μL of tricine buffer (pH 7.5) and 30 μL of extracts (50 mg/mL) were mixed and incubated at 37 °C for 20 min. Next, 20 μL of FALGPA (0.5 mM) was added to the mixture, and the absorbance was immediately measured at 325 nm using the plate reader (Multiskan GO 1510, Thermo Fisher Scientific, Vantaa, Finland). The absorbance was measured again after 20 min of incubation at 37 °C following the addition of the substrate. A control sample containing only the solvent used instead of the extract was performed, and the results were reduced by the value of the blank representing the enzyme-free sample. The positive control was a sample containing a solution of epigallocatechin gallate instead of the extract tested. The collagenase inhibition rate (presented for the final concentration of substance in enzymatic reaction) expressed as a percentage of inhibition was calculated using Formula (2).

[1] = Parallel artificial membrane permeability assay (PAMPA-GIT, PAMPA-BBB, PAMPA-SKIN); assay type: in vitro ADME; conditions: isoflavones from red clover extracts, donor 12.5 mg/mL, pH 7.4, 4 h at 37 °C, BBB and SKIN membranes; for Papp at 4 h, 12.5 mg/mL: PAMPA, read-out: Apparent permeability coefficient (Papp)
Protocol: Then, 200 μL of the donor solution was added to the donor wells. Subsequently, each filter membrane of the top plate was coated with a suitable lipid solution, i.e., 5 μL BBB, GIT or preincubated with hydration buffer 24 h earlier for SKIN assay (Pion Inc., Billerica, MA, USA), and the acceptor well was filled with 200 μL of acceptor fluid. The acceptor plate and the donor plate were coupled together and incubated for 4 h at 37 °C. After incubation, the plates were separated, and the concentrations of compounds that crossed the membrane were determined using HPLC. To calculate Papp, the following equation was used:(3) Papp=−ln1−CA/Cequilibrium/S×1/VD+1/VA×t where Papp—effective permeability coefficient (cm/s), VD—donor volume, VA—acceptor volume, Cequilibrium—equilibrium concentration, S—membrane area, and t—incubation time (in seconds).
Samples were analyzed in triplicate.

[2] = CUPRAC assay (antioxidant activity); conditions: standard substance
Protocol: To create the CUPRAC reagent, a conical flask wrapped in aluminum foil was used. Equal volumes of a 7.5 mM neocuproine solution in 96% ethanol, a 10 mM aqueous copper chloride solution and an ammonium acetate buffer solution (pH = 7) were added to the flask. In the 96-well plate, 50.0 µL of the test sample and 150.0 µL of the CUPRAC reagent solution were combined. The blank consisted of a mixture of the CUPRAC reagent and the solvent used for extraction. The assay was replicated six times. The plate was covered with aluminum foil, shaken for 5 min at 25 °C and then incubated at room temperature for 25 min. The absorbance was measured at 450 nm using a plate reader (Multiskan GO 1510, Thermo Fisher Scientific, Vantaa, Finland). […] This value was determined using a polynomial trend line.

[3] = DPPH assay (free radical scavenging); conditions: standard substance
Protocol: In summary, a 96-well plate was used for the assay. Each well contained 25.0 μL of the test sample and 175.0 μL of a DPPH radical solution (3.9 mg/50 mL) in methanol. The control sample consisted of the DPPH radical solution and the solvent used for extraction, while the blank represented the absorbance value obtained from combining 25.0 μL of the extraction solvent with 175.0 μL of the solvent used to dissolve the DPPH radical (methanol). This procedure was repeated six times. The plate was shaken for 5 min at 25 °C and then incubated for 25 min at room temperature. The absorbance was measured at 517 nm using a plate reader (Multiskan GO 1510, Thermo Fisher Scientific, Vantaa, Finland). The free radical scavenging capacity (%) of the test extracts and the standard substance was calculated using the following equation:(1) […] activity%=A0-A1/A0×100% where A0 is the absorbance of the control, and A1 is the absorbance of the tested sample.

[4] = parameters: method as in PMID 29504397; conditions: rat study; cited from earlier work

Which “Collagenase inhibition IC50” value (collagenase) does the source give for `O=C(O[C@@H]1Cc2c(O)cc(O)cc2O[C@@H]1c1cc(O)c(O)c(O)c1)c1cc(O)c(O)c(O)c1` [EGCG, epigallocatechin gallate] here?
Its value is “IC50 = 0.666 ± 0.007 mg/ml”.

With `O=c1c(-c2ccc(O)cc2)coc2cc(O)cc(O)c12` [genistein] as the compound, how does the “Apparent permeability coefficient (Papp)” value [1] read?
The value was “did not show such permeability”.

What does the source list for `O=C1O[C@H]([C@@H](O)CO)C(O)=C1O` [Ascorbic acid]?
CUPRAC IC50 [2]: 73 ± 3 µg/mL; DPPH IC50 [3]: 68 ± 5 µg/mL

For `COc1ccc(-c2coc3cc(O)ccc3c2=O)cc1` [formononetin], which Papp at 4 h, 12.5 mg/mL [1] is on record?
The Papp at 4 h, 12.5 mg/mL was greater than 1 ×10⁻⁶ cm/s.

What about the bioavailability [4] of the same compound?
The bioavailability was 21.8%.

Which Papp at 4 h, 12.5 mg/mL [1] does the source give for `COc1ccc(-c2coc3cc(O)cc(O)c3c2=O)cc1` [biochanin A] here?
The Papp at 4 h, 12.5 mg/mL was greater than 1 ×10⁻⁶ cm/s.

— paper PMC10343205, “Multidirectional Effects of Red Clover (Trifolium pratense L.) in Support of Menopause Therapy” (Molecules, 2023)
